{
  "source": "paper PMC7541553",
  "about": "(Molecular cancer therapeutics, 2020)",
  "set-up": "species or system BALB/C mice",
  "conditions": "mouse, in vivo, iv",
  "data": [
    {"substance": "Arg-Gly-Asp [RGD]", "values": [
      {"measurement": "t1/2 in the circulation", "result": "33.4 ± 0.9", "unit": "min"}
    ]}
  ]
}
